Biological target: T1, LPA1 (Homo sapiens, UniProt Q92633)
T1 construct: ProLink (β-galactosidase enzyme-donor fragment); host or cells: CHO-K1 (PathHunter EDG2 β-Arrestin cell line)
Assay: LPA1 calcium flux assay (LPA1 functional antagonist assay)
Format: cell-based
Conditions: PathHunter CHO-K1 EDG2 β-Arrestin cells, calcium indicator dye, stimulated with EC80 concentration of LPA, FLIPR
Description: The effectiveness of compounds of the present invention as LPA1 inhibitors can be determined in an LPA1 functional antagonist assay as follows.
PathHunter® CHO-K1 EDG2 β-Arrestin Cell Line (Eurofins DiscoverX Corporation, Cat #93-0644C2) were plated overnight (11,500 cells/well) in poly-D-lysine coated 384-well microplates (Corning, Cat #356697) in AssayComplete™ Cell Plating 35 Reagent (Eurofins DiscoverX Corporation, Cat #93-0563R35). Following overnight culture, cells were loaded with calcium indicator dye from the HitHunter Calcium No WashPLUS Assay kit (Eurofins DiscoverX Corporation, Cat #93-0091) for 45 minutes at 37° C. Test compounds solubilized in DMSO (Sigma, Cat #276855) on 384-well polypropylene microplates (Greiner bio-one, Cat #781280) were then diluted to intermediate concentration with assay buffer [1×HBSS calcium/magnesium (Corning, Cat #21-023-CM) and 20 mM HEPES (Corning, Cat #25-060-Cl)] before addition to cells by Agilent Velocity 11 with a final concentration of 0.4% DMSO. After compound addition, assay plates were equilibrated to room temperature for 30 minutes. Cells were then stimulated by addition of EC80 concentration of LPA (Cat #, 10010093) in assay buffer containing [1×HBSS calcium/magnesium (Corning, Cat #21-023-CM), 20 mM HEPES (Corning, Cat #25-060-Cl), and 0.1% BSA (Sigma, Cat #A8806)] using Molecular Devices FLIPR Tetra PLUS®. IC50 values were determined by Chemical and Biological Information System from ChemInnovation Software, Inc.
The compounds of this invention were tested for their activity to inhibit LPA1 as determined in an LPA1 functional antagonist assay as described herein.

T1 sequence (Q92633 whole entry, the tested form may be a part): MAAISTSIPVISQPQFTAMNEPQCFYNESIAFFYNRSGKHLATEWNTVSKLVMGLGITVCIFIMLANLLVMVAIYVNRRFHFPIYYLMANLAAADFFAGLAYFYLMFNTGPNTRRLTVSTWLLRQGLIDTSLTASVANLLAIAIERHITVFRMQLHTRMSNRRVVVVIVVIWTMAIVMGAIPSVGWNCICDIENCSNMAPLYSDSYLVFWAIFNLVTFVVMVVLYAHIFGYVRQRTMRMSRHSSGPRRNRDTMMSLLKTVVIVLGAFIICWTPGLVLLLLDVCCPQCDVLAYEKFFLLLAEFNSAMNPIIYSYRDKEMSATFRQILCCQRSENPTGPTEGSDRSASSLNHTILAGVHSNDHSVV

IC50 | SMILES
0.5 to 5 µM | CCCc1ccc(=O)n(Cc2c(-c3ccc(N4CC[C@@H](C(CC)C(=O)O)C4)c(CC)n3)nnn2C)c1 (single isomer, unassigned) [Example 17, (S) or (R)-2-((S)-1-(2-ethyl-6-(1-methyl-5-((2-oxo-5-propylpyridin-1(2H)-yl)methyl)-1H-1,2,3-triazol-4-yl)pyridin-3-yl)pyrrolidin-3-yl)butanoic acid]
5 to 10000 µM | CCCN(C)C(=O)OCc1c(-c2ccc(N3CC[C@@H](C(CC)C(=O)O)C3)c(CC)n2)nnn1C (single isomer, unassigned) [Example 19, (S) or (R)-2-((S)-1-(2-ethyl-6-(1-methyl-5-(((methyl(propyl)carbamoyl)oxy)methyl)-1H-1,2,3-triazol-4-yl)pyridin-3-yl)pyrrolidin-3-yl)butanoic acid]
< 0.1 µM | CCc1nc(-c2nnn(C)c2COc2nccc(C3CCC3)n2)ccc1C1CCOC(CC(=O)O)C1 (single isomer, unassigned) [Example 35, 2-(4-(6-(5-(((4-cyclobutylpyrimidin-2-yl)oxy)methyl)-1-methyl-1H-1,2,3-triazol-4-yl)-2-ethylpyridin-3-yl)tetrahydro-2H-223,423-pyran-2-yl)acetic acid]
< 0.1 µM | CCc1nc(-c2nnn(C)c2COc2nccc(C3CCC3)n2)ccc1C1CCOC(CC(=O)O)C1 (single isomer, unassigned) [Example 37, 2-(4-(6-(5-(((4-cyclobutylpyrimidin-2-yl)oxy)methyl)-1-methyl-1H-1,2,3-triazol-4-yl)-2-ethylpyridin-3-yl)tetrahydro-2H-2λ^3,4λ^3-pyran-2-yl)acetic acid]
5 to 10000 µM | CCCc1ccc(=O)n(Cc2c(-c3ccc(C4CN(CC(=O)O)CC(F)(F)C4)c(C)n3)nnn2C)c1 (single isomer, unassigned) [Example 40, (R) or (S)-2-(3,3-difluoro-5-(2-methyl-6-(1-methyl-5-((2-oxo-5-propylpyridin-1(2H)-yl)methyl)-1H-1,2,3-triazol-4-yl)pyridin-3-yl)piperidin-1-yl)acetic acid]
< 0.1 µM | CCc1nc(-c2nnn(C)c2COc2nccc(C3CCC3)n2)ccc1N1CC[C@@H](CC(=O)O)C1 [Example 1, 2-[(3S)-1-[6-(5-{[(4-cyclobutylpyrimidin-2-yl)oxy]methyl}-1-methyl-1H-1,2,3-triazol-4-yl)-2-ethylpyridin-3-yl]pyrrolidin-3-yl]acetic acid]
0.5 to 5 µM | CCCc1ccc(=O)n(Cc2c(-c3ccc(N4CCC(CC(=O)O)C4)c(C)n3)nnn2C)c1 (stereo not drawn) [Example 2, 2-(1-(2-methyl-6-(1-methyl-5-((2-oxo-5-propylpyridin-1(2H)-yl)methyl)-1H-1,2,3-triazol-4-yl)pyridin-3-yl)pyrrolidin-3-yl)acetic acid]
< 0.1 µM | Cc1nc(-c2nnn(C)c2COc2nccc(C3CCC3)n2)ccc1N1CCC(CC(=O)O)C1 (stereo not drawn) [Example 3, 2-(1-(6-(5-(((4-cyclobutylpyrimidin-2-yl)oxy)methyl)-1-methyl-1H-1,2,3-triazol-4-yl)-2-methylpyridin-3-yl)pyrrolidin-3-yl)acetic acid]
0.1 to 0.5 µM | Cc1nc(-c2nnn(C)c2COc2nccc(C3CCC3)n2)ccc1N1CC[C@H](CC(=O)O)C1 [Example 5, (R)-2-(1-(6-(5-(((4-cyclobutylpyrimidin-2-yl)oxy)methyl)-1-methyl-1H-1,2,3-triazol-4-yl)-2-methylpyridin-3-yl)pyrrolidin-3-yl)acetic acid]
< 0.1 µM | Cc1nc(-c2nnn(C)c2COc2nccc(C3CCC3)n2)ccc1N1CC[C@@H](CC(=O)O)C1 [Example 6, (S)-2-(1-(6-(5-(((4-cyclobutylpyrimidin-2-yl)oxy)methyl)-1-methyl-1H-1,2,3-triazol-4-yl)-2-methylpyridin-3-yl)pyrrolidin-3-yl)acetic acid]
0.1 to 0.5 µM | Cc1nc(-c2nnn(C)c2COc2cc(-n3cccn3)ncn2)ccc1N1CC[C@H](CC(=O)O)C1 [Example 7, (R)-2-(1-(6-(5-(((6-(1H-pyrazol-1-yl)pyrimidin-4-yl)oxy)methyl)-1-methyl-1H-1,2,3-triazol-4-yl)-2-methylpyridin-3-yl)pyrrolidin-3-yl)acetic acid]

The next lines start with the compound.

SMILES | IC50
CCc1nc(-c2nnn(C)c2COc2nccc(C3CCC3)n2)ccc1[C@H]1CCC[C@@H](CC(=O)O)O1 (relative stereo) [Example 21, 2-(rel-(2S,6R)-6-(6-(5-(((4-cyclobutylpyrimidin-2-yl)oxy)methyl)-1-methyl-1H-1,2,3-triazol-4-yl)-2-ethylpyridin-3-yl)tetrahydro-2H-pyran-2-yl)acetic acid] | < 0.1 µM
CCCc1ccc(=O)n(Cc2c(-c3ccc(N4CC[C@@H](C(CC)C(=O)O)C4)c(CC)n3)nnn2C)c1 (single isomer, unassigned) [Example 18, (R) or (S)-2-((S)-1-(2-ethyl-6-(1-methyl-5-((2-oxo-5-propylpyridin-1(2H)-yl)methyl)-1H-1,2,3-triazol-4-yl)pyridin-3-yl)pyrrolidin-3-yl)butanoic acid] | 5 to 10000 µM
CCCN(C)C(=O)OCc1c(-c2ccc(N3CC[C@@H](C(CC)C(=O)O)C3)c(CC)n2)nnn1C (single isomer, unassigned) [Example 20, (R) or (S)-2-((S)-1-(2-ethyl-6-(1-methyl-5-(((methyl(propyl)carbamoyl)oxy)methyl)-1H-1,2,3-triazol-4-yl)pyridin-3-yl)pyrrolidin-3-yl)butanoic acid] | 0.5 to 5 µM
CCc1nc(-c2nnn(C)c2COc2nccc(C3CCC3)n2)ccc1[C@@H]1CCC[C@@H](CC(=O)O)O1 (single isomer, unassigned) [Example 22, 2-((2S,6S) or (2R,6R)-6-(6-(5-(((4-cyclobutylpyrimidin-2-yl)oxy)methyl)-1-methyl-1H-1,2,3-triazol-4-yl)-2-ethylpyridin-3-yl)tetrahydro-2H-pyran-2-yl)acetic acid] | < 0.1 µM
CCc1nc(-c2nnn(C)c2COc2nccc(C3CCC3)n2)ccc1[C@H]1CCC[C@H](CC(=O)O)O1 (single isomer, unassigned) [Example 23, 2-((2R,6R) or (2S,6S)-6-(6-(5-(((4-cyclobutylpyrimidin-2-yl)oxy)methyl)-1-methyl-1H-1,2,3-triazol-4-yl)-2-ethylpyridin-3-yl)tetrahydro-2H-pyran-2-yl)acetic acid] | 0.1 to 0.5 µM
CCCc1ccc(=O)n(Cc2c(-c3ccc([C@@H]4CCC[C@@H](CC(=O)O)O4)c(CC)n3)nnn2C)c1 (single isomer, unassigned) [Example 24, 2-((2S,6S) or (2R,6R)-6-(2-ethyl-6-(1-methyl-5-((2-oxo-5-propylpyridin-1(2H)-yl)methyl)-1H-1,2,3-triazol-4-yl)pyridin-3-yl)tetrahydro-2H-pyran-2-yl)acetic acid] | 0.5 to 5 µM
CCCN(C)C(=O)OCc1c(-c2ccc([C@@H]3CCC[C@@H](CC(=O)O)O3)c(CC)n2)nnn1C (single isomer, unassigned) [Example 25, 2-((2S,6S) or (2R,6R)-6-(2-ethyl-6-(1-methyl-5-(((methyl(propyl)carbamoyl)oxy)methyl)-1H-1,2,3-triazol-4-yl)pyridin-3-yl)tetrahydro-2H-pyran-2-yl)acetic acid] | 0.5 to 5 µM
CCc1nc(-c2nnn(C)c2COc2nccc(C3CCC3)n2)ccc1C1CCOC(CC(=O)O)C1 (single isomer, unassigned) [Example 34, 2-(4-(6-(5-(((4-cyclobutylpyrimidin-2-yl)oxy)methyl)-1-methyl-1H-1,2,3-triazol-4-yl)-2-ethylpyridin-3-yl)tetrahydro-2H-223,423-pyran-2-yl)acetic acid] | < 0.1 µM
CCc1nc(-c2nnn(C)c2COc2nccc(C3CCC3)n2)ccc1C1CCOC(CC(=O)O)C1 (single isomer, unassigned) [Example 36, 2-(4-(6-(5-(((4-cyclobutylpyrimidin-2-yl)oxy)methyl)-1-methyl-1H-1,2,3-triazol-4-yl)-2-ethylpyridin-3-yl)tetrahydro-2H-223,423-pyran-2-yl)acetic acid] | < 0.1 µM
CCCc1ccc(=O)n(Cc2c(-c3ccc(C4CN(CC(=O)O)CC(F)(F)C4)c(C)n3)nnn2C)c1 (single isomer, unassigned) [Example 41, (S) or (R)-2-(3,3-difluoro-5-(2-methyl-6-(1-methyl-5-((2-oxo-5-propylpyridin-1(2H)-yl)methyl)-1H-1,2,3-triazol-4-yl)pyridin-3-yl)piperidin-1-yl)acetic acid] | 0.1 to 0.5 µM
CCc1nc(-c2nnn(C)c2COc2nccc(C3CCC3)n2)ccc1N1CC[C@H](CC(=O)O)C1 [Example 4, (R)-2-(1-(6-(5-(((4-cyclobutylpyrimidin-2-yl)oxy)methyl)-1-methyl-1H-1,2,3-triazol-4-yl)-2-ethylpyridin-3-yl)pyrrolidin-3-yl)acetic acid] | 0.1 to 0.5 µM
CCc1nc(-c2nnn(C)c2COc2nccc(C3CCC3)n2)ccc1N1CC[C@@H]([C@@H](C)C(=O)O)C1 [Example 8] | < 0.1 µM
CCc1nc(-c2nnn(C)c2COc2nccc(C3CCC3)n2)ccc1N1CC[C@H]([C@@H](C)C(=O)O)C1 [Example 9] | < 0.1 µM

Reference: US20250230140A1 (Viva Star Biosciences (Suzhou) Co., Ltd., priority 2021, published 2025)
